Data as given in ChEMBL document CHEMBL4261482, “Development of small molecular compounds targeting cancer stem cells” (Medchemcomm, 2017).
pIC50: −log10 of the molar value.

Assays:
MV4-11 = experiment: Cytotoxicity against human MV4-11 cells assessed as decrease in cell viability after 48 hrs by MTT assay; format: functional, cell-based; details: MV4-11, 48 h
THP-1 = experiment: Cytotoxicity against human THP1 cells assessed as decrease in cell viability after 48 hrs by MTT assay; format: functional, cell-based; details: THP-1, 48 h
KG-1 = experiment: Cytotoxicity against human KG1 cells assessed as decrease in cell viability after 48 hrs by MTT assay; format: functional, cell-based; details: KG-1, 48 h
[1] = Cytotoxicity against human KOCL48 cells assessed as decrease in cell viability after 48 hrs by MTT assay; format: functional, cell-based
MOLM-13 = experiment: Cytotoxicity against human MOLM13 cells assessed as decrease in cell viability after 48 hrs by MTT assay; format: functional, cell-based; details: MOLM-13, 48 h
KG-1a = experiment: Cytotoxicity against human KG1a cells assessed as decrease in cell viability after 48 hrs by MTT assay; format: functional, cell-based
K562 = experiment: Cytotoxicity against human K562 cells assessed as decrease in cell viability after 48 hrs by MTT assay; format: functional, cell-based; details: K562, 48 h
ML-2 = experiment: Cytotoxicity against human ML2 cells assessed as decrease in cell viability after 48 hrs by MTT assay; format: functional, cell-based; details: ML-2, 48 h
U-937 = experiment: Cytotoxicity against human U937 cells assessed as decrease in cell viability after 48 hrs by MTT assay; format: functional, cell-based; details: U-937, 48 h
CAKI-1 = experiment: Cytotoxicity against human Caki1 cells assessed as decrease in cell viability after 72 hrs by MTT assay; format: functional, cell-based; details: CAKI-1, 72 h
769-P = experiment: Cytotoxicity against human 769-P cells assessed as decrease in cell viability after 72 hrs by MTT assay; format: functional, cell-based
786-0 = experiment: Cytotoxicity against human 786-O cells assessed as decrease in cell viability after 72 hrs by MTT assay; format: functional, cell-based; details: 786-0, 72 h
[2] = Cytotoxicity against human VMRC-RCW cells assessed as decrease in cell viability after 72 hrs by MTT assay; format: functional, cell-based
CAKI-2 = experiment: Cytotoxicity against human Caki2 cells assessed as decrease in cell viability after 72 hrs by MTT assay; format: functional, cell-based; details: CAKI-2, 72 h
Lu-99 cell line [3] = experiment: Cytotoxicity against human LU99 cells assessed as decrease in cell viability after 72 hrs by CCK8 assay; format: functional, cell-based; details: Lu-99, 72 h
Daudi = experiment: Cytotoxicity against human Daudi cells assessed as decrease in cell viability after 72 hrs by CCK8 assay; format: functional, cell-based
MKN-1 = experiment: Cytotoxicity against human MKN1 cells assessed as decrease in cell viability after 72 hrs by CCK8 assay; format: functional, cell-based; details: MKN-1, 72 h
HCT-116 = experiment: Cytotoxicity against human HCT116 cells assessed as decrease in cell viability after 72 hrs by CCK8 assay; format: functional, cell-based; details: HCT-116, 72 h
MIA PaCa-2 = experiment: Cytotoxicity against human MIAPaCa2 cells assessed as decrease in cell viability after 72 hrs by CCK8 assay; format: functional, cell-based; details: MIA PaCa-2, 72 h
UMUC3 = experiment: Cytotoxicity against human UM-UC-3 cells assessed as decrease in cell viability after 72 hrs by CCK8 assay; format: functional, cell-based; details: UMUC3, 72 h
MKN-45 = experiment: Cytotoxicity against human MKN45 cells assessed as decrease in cell viability after 72 hrs by CCK8 assay; format: functional, cell-based; details: MKN-45, 72 h
DU-4475 = experiment: Cytotoxicity against human DU4475 cells assessed as decrease in cell viability after 72 hrs by CCK8 assay; format: functional, cell-based; details: DU-4475, 72 h
A549 [4] = experiment: Cytotoxicity against human A549 cells assessed as decrease in cell viability after 72 hrs by CCK8 assay; format: functional, cell-based; details: A549, 72 h
CWR22R = experiment: Cytotoxicity against human 22Rv1 cells assessed as decrease in cell viability after 72 hrs by CCK8 assay; format: functional, cell-based; details: 22Rv1, 72 h
T47D = experiment: Cytotoxicity against human T47D cells assessed as decrease in cell viability after 72 hrs by CCK8 assay; format: functional, cell-based
HepG2 = experiment: Cytotoxicity against human HepG2 cells assessed as decrease in cell viability after 72 hrs by CCK8 assay; format: functional, cell-based; details: HepG2, 72 h
MDA-MB-231 = experiment: Cytotoxicity against human MDA-MB-231 cells assessed as decrease in cell viability after 72 hrs by CCK8 assay; format: functional, cell-based; details: MDA-MB-231, 72 h
A549 [5] = experiment: Antitumor activity against human A549 cells xenografted in BALB/cSLC-nu/nu mouse assessed as tumor growth inhibition at 5 mg/kg, iv qd administered for 14 days measured on day 15 relative to control; format: functional; details: read-out: TGI
Lu-99 cell line [6] = experiment: Antitumor activity against human LU99 cells xenografted in BALB/cSLC-nu/nu mouse assessed as tumor growth inhibition at 5 mg/kg, iv qd administered for 14 days measured on day 15 relative to control; format: functional; details: Lu-99, iv, read-out: TGI
Caov-3 cell line = experiment: Cytotoxicity against human Caov3 cells assessed as decrease in cell viability after 72 hrs by CCK8 assay; format: functional, cell-based; details: Caov-3, 72 h
PA-1 = experiment: Cytotoxicity against human PA1 cells assessed as decrease in cell viability after 72 hrs by CCK8 assay; format: functional, cell-based; details: PA-1, 72 h
[7] = Cytotoxicity against human ES2 cells assessed as decrease in cell viability after 72 hrs by CCK8 assay; format: functional, cell-based; details: ES-2, 72 h
SK-OV-3 = experiment: Cytotoxicity against human SKOV3 cells assessed as decrease in cell viability after 72 hrs by CCK8 assay; format: functional, cell-based; details: SK-OV-3, 72 h
OV-90 = experiment: Cytotoxicity against human OV90 cells assessed as decrease in cell viability after 72 hrs by CCK8 assay; format: functional, cell-based; details: OV-90, 72 h
SW626 = experiment: Cytotoxicity against human SW626 cells assessed as decrease in cell viability after 72 hrs by CCK8 assay; format: functional, cell-based; details: SW626, 72 h
OVCAR-3 = experiment: Cytotoxicity against human OVCAR3 cells assessed as decrease in cell viability after 72 hrs by CCK8 assay; format: functional, cell-based; details: OVCAR-3, 72 h
A2780 = experiment: Cytotoxicity against human A2780 cells assessed as decrease in cell viability after 72 hrs by CCK8 assay; format: functional, cell-based; details: A2780, 72 h
[8] = Cytotoxicity against human OVSAHO cells assessed as decrease in cell viability after 72 hrs by CCK8 assay; format: functional, cell-based
RMG-I = experiment: Cytotoxicity against human RMG-1 cells assessed as decrease in cell viability after 72 hrs by CCK8 assay; format: functional, cell-based
[9] = Cytotoxicity against human OVTOKO cells assessed as decrease in cell viability after 72 hrs by CCK8 assay; format: functional, cell-based

With `Cc1cc(O)c(-c2ccc([C@@H](C)CN)cc2)c2c1[nH]c(=O)c1sccc12` as the compound, how does the pIC50 (MV4-11) read?
The pIC50 was 7.97.

What about the pIC50 (THP-1) of the same compound?
Its pIC50 is 7.63.

What about the pIC50 (KG-1) of the same compound?
The pIC50 was 7.31.

What about the pIC50 [1] of the same compound?
The pIC50 was 8.15.

What about the pIC50 (MOLM-13) of the same compound?
Its pIC50 is 8.05.

What about the pIC50 (KG-1a) of the same compound?
Its pIC50 is 7.58.

And the pIC50 (K562)?
The pIC50 was 7.43.

And the pIC50 (ML-2)?
The pIC50 was 7.75.

What about the pIC50 (U-937) of the same compound?
Its pIC50 is 7.72.

What about the pIC50 (CAKI-1) of the same compound?
The pIC50 was 7.56.

And the pIC50 (769-P)?
Its pIC50 is 7.68.

And the pIC50 (786-0)?
The pIC50 was 7.36.

And the pIC50 [2]?
Its pIC50 is 7.70.

And the pIC50 (CAKI-2)?
The pIC50 was 7.70.

And the pIC50 (Lu-99 cell line [3])?
The pIC50 was 8.82.

What about the pIC50 (Daudi) of the same compound?
Its pIC50 is 8.43.

What about the pIC50 (MKN-1) of the same compound?
The pIC50 was 8.34.

What about the pIC50 (HCT-116) of the same compound?
Its pIC50 is 8.32.

What about the pIC50 (MIA PaCa-2) of the same compound?
The pIC50 was 8.28.

What about the pIC50 (UMUC3) of the same compound?
The pIC50 was 8.24.

What about the pIC50 (MKN-45) of the same compound?
The pIC50 was 8.21.

And the pIC50 (DU-4475)?
Its pIC50 is 8.19.

What about the pIC50 (A549 [4]) of the same compound?
The pIC50 was 8.19.

What about the pIC50 (CWR22R) of the same compound?
The pIC50 was 8.10.

And the pIC50 (T47D)?
The pIC50 was 8.08.

And the pIC50 (HepG2)?
The pIC50 was 8.07.

And the pIC50 (MDA-MB-231)?
Its pIC50 is 7.85.

What about the inhibition in vivo at 5 mg/kg (A549 [5]) of the same compound?
The inhibition in vivo at 5 mg/kg was 65%.

And the inhibition in vivo at 5 mg/kg (Lu-99 cell line [6])?
Its inhibition in vivo at 5 mg/kg is 104%.

And the pIC50 (Caov-3 cell line)?
The pIC50 was 8.29.

And the pIC50 (PA-1)?
Its pIC50 is 8.30.

What about the pIC50 [7] of the same compound?
The pIC50 was 8.25.

What about the pIC50 (SK-OV-3) of the same compound?
Its pIC50 is 8.20.

And the pIC50 (OV-90)?
Its pIC50 is 8.06.

And the pIC50 (SW626)?
The pIC50 was 8.03.

What about the pIC50 (OVCAR-3) of the same compound?
The pIC50 was 7.92.

And the pIC50 (A2780)?
The pIC50 was 8.00.

And the pIC50 [8]?
The pIC50 was 7.89.

What about the pIC50 (RMG-I) of the same compound?
The pIC50 was 7.82.

What about the pIC50 [9] of the same compound?
The pIC50 was 7.34.
